{"source": "patent US10328075B2", "about": "“Method of treatment and compounds for use therein” (Baker Heart and Diabetes Institute, priority 2015, dated 2019)", "key": {"hFPR1 [1]": {"target": "T1, hFPR1 (Homo sapiens, UniProt P21462)", "T1 construct": "expressed in transfected cells", "T1 sequence (P21462 1-350)": "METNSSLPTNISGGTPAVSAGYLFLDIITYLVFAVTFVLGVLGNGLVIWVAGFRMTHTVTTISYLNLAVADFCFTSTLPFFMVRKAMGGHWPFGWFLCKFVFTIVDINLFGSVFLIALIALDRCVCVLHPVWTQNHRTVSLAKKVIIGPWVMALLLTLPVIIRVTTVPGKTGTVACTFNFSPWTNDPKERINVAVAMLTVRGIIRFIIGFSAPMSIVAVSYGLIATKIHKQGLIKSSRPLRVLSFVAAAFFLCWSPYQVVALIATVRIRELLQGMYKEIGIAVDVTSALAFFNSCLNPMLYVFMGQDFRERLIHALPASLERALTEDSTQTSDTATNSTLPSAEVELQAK", "experiment": "[Ca2+]i mobilization in FlpIn-CHO cells stably expressing hFPR1", "type": "cell-based", "design": "Calcium Rmax: unit not given here", "settings": "Table 10, receptor not given, ND = Not detectable; for EC50: read-out: Calcium pEC50 (converted)", "text": "(§1) cDNDA construct and generation of stable cell lines: cDNA in pcDNA3.1^+ encoding the human formyl peptide receptors (FPR) subtypes, hFPR1, hFPR2 and hFPR3 was obtained from Invitrogen. The sequences for 3 hFPR receptors were amplified by PCR and cloned into the Gateway entry vector, pDONR202™, using the BP clonase enzyme mix, according to the manufactures' instructions (Invitrogen Inc, Carlsbad, Calif., USA). All hFPR receptors constructs in pDONR201™ were subsequently transfected into the pEF5/FRT/V5/dest vector using the LR clonase enzyme mix (Invitrogen). Receptor constructs (pEF5/FRT/V5/dest) were used to transfect FIp-In CHO cells as described previously (Valant C et al., PNAS, 2014). Cells were selected using 500 μg/mL hydromycin to generate cell lines stably expressing each receptor construct. Cells were maintained and cultured in high glucose DMEM supplemented with 10% FBS, 16 mM HEPES and 500 μg/mL hydromycin at 37° C. under a humidified atmosphere containing 5% CO2.\n(§2) In the various assays described below, cells were plated into 96-well transparent cell culture plates at 4×10^4 cells per well, cultured overnight in serum-free media at 37° C. in 5% CO2.\nIntracellular calcium mobilization: Intracellular calcium mobilization was assayed as described previously (Keov, P et al., 2014). Briefly, cells were washed once using HEPES buffered saline (HBS) solution [150 mM NaCl, 2.2 mM CaCl2, 2.6 mM KCl, 1.2 mM MgCl2, 10 mM HEPEs, 10 mM D-Glucose, 0.5% (w/v) bovine serum albumin (BSA) and 4 mM probenecid] at pH 7.4, then treated with Fluo-4-AM (1 μM, in HBS/BSA/probenecid) for 60 min at 37° C. in 5% CO2 in the dark. Cells were then further washed and placed in HBS/BSA/probenecid solution for ligation addition and assay using the FLEXstation 3 plate reader (Molecular Devices, Sunnyvale, Calif.). For all experiments, peak change in fluorescence signal was normalized to the cellular response to 100 μM ATP, which was used as an internal positive control.\n(§3) Data analysis: All data were analysed using GraphPad Prism 6.0 (GraphPad Software, San Deigo, Calif., USA). Where appropriate, concentration-response curves were fitted to derive the maximal agonist effect (Emax), and the ligand potency estimate (pEC50), where Emax is the maximal possible response of the system (not the agonist), basal is the basal level of response in the absence of agonist, and pEC50 is the negative logarithm of the agonist concentration that gives a response halfway between Emax and basal.\nIn the present study, FIp-IN CHO cells and Gateway plasmid were obtained from Invitrogen Inc (Carlsbad, Calif., USA). The sequences for all 3 known human FPRs (hFPR1, hFPR2 and hFPR3) were amplified by PCR and cloned into the Gateway entry vector, pDONR202TM, using the BP clonase enzyme mix, according to the manufacturers' instructions. The hFPR pDONR201TM constructs were subsequently transfected into the pEF5/FRT/V5/dest vector using the LR clonase enzyme mix (Invitrogen). Receptor constructs (pEF5/FRT/V5/dest) were used to transfect FIp-IN CHO cells, as described previously (Valant et al. 2014). Cells were selected using 500 μg/mL hydromycin to generate cell lines stably expressing each human receptor construct. Cells were maintained and cultured in high glucose Dulbecco's modified eagle medium (DMEM) supplemented with 10% fetal bovine serum (FBS, from JRH Biosciences, Lenexa, Kans., USA) and 500 μg/mL hydromycin B (Invitrogen Inc) at 37° C. under a humidified atmosphere containing 5% CO2. Cell were plated into 96-well transparent cell culture plates at 4×10^4 cells per well, cultured overnight in serum-free media at 37° C. in 5% CO2.\n(ii) Intracellular Ca2+ mobilization: Intracellular Ca2+ mobilization was determined in stably-transfected recombinant hFPR CHO cells, as described previously (Valant et al. 2014)."}, "hFPR1 [2]": {"target": "T1, hFPR1", "experiment": "ERK1/2 phosphorylation (AlphaScreen SureFire) in hFPR1-FlpIn-CHO cells", "type": "cell-based", "settings": "Table 10, receptor not given; for EC50 / ERK pEC50: values of 10394/10396 equal the hFPR1 values of Table 9; for EC50: read-out: ERK pEC50 (converted)", "text": "as §1, §2\nMeasurement of extracellular signal regulated kinase 1 and 2 phosphorylation (pERK1/2): Initial ERK1/2 phosphorylation at Thr202/Tyr204 time-course experiments were performed to determine the time at which ERK1/2 phosphorylation was maximal after stimulation by each agonist. Cells were seeded onto transparent 96-well cell culture plates at 4×10^4 cells per well. After 6 h, cells were washed once with PBS, and then incubated in serum-free DMEM overnight, to allow FBS-stimulated phosphorylated ERK1/2 levels to subside. […] 10% (v/v) FBS was used as a positive control, with vehicle controls also included. The reaction was terminated by removal of study drugs and lysis of cells with 100 μL of SureFire lysis buffer (TGR Biosciences). Cell were lysed in SureFire lysis buffer and transferred to 384-well opaque proxiplates. Under low-light conditions, a 1:120 (v:v) dilution of AlphaScreen beads (both acceptor and donor):Surefire reaction buffer was prepared, which was mixed with the activation buffer in a ratio of 6:1 (v:v), respectively. Plates were incubated in the dark at 37° C. for 1 h before the fluorescence signal was measured by a Fusion-α plate reader (PerkinElmer Life and Analytical Sciences, Foster city, CA, USA) with standard AlphaScreen settings. Data were normalized to the maximal response elicited by 10% (v/v) FBS at the same time point.\nReceptor mediated pERK1/2 levels were determined using the AlphaScreen™ ERK1/2 SureFire™ kit, as described previously (Keov, P et al., 2014). For all experiments, 10% FBS was used as internal positive control to stimulate pERK1/2, and which the maximum responses were used for normalization of data, whilst vehicle was used as negative control.\nas §3\nIn the present study, FIp-IN CHO cells and Gateway plasmid were obtained from Invitrogen Inc (Carlsbad, Calif., USA). The sequences for all 3 known human FPRs (hFPR1, hFPR2 and hFPR3) were amplified by PCR and cloned into the Gateway entry vector, pDONR202TM, using the BP clonase enzyme mix, according to the manufacturers' instructions. The hFPR pDONR201TM constructs were subsequently transfected into the pEF5/FRT/V5/dest vector using the LR clonase enzyme mix (Invitrogen)."}}, "data": [{"smiles": "COc1ccc(NC(=O)Cn2nc(C)cc(Cc3c(OC)cccc3OC)c2=O)cc1", "note": "[MIPS-0014071]", "values": [{"measurement": "Calcium Rmax", "setting": "hFPR1 [1]", "result": "48 ± 7"}, {"measurement": "EC50", "setting": "hFPR1 [1]", "result": 2820, "unit": "nM"}, {"measurement": "ERK Rmax", "setting": "hFPR1 [2]", "result": "78 ± 2"}, {"measurement": "EC50", "setting": "hFPR1 [2]", "result": 2630, "unit": "nM"}]}, {"smiles": "COc1cccc(Cc2cc(C)nn(C(C)C(=O)Nc3ccc4c(c3)OCO4)c2=O)c1", "note": "(stereo not shown) [MIPS-0008856]", "values": [{"measurement": "Calcium Rmax", "setting": "hFPR1 [1]", "result": "19 ± 3"}, {"measurement": "ERK Rmax", "setting": "hFPR1 [2]", "result": "64 ± 4"}, {"measurement": "EC50", "setting": "hFPR1 [2]", "result": 12600, "unit": "nM"}]}, {"smiles": "COc1ccc(Cc2cc(C)nn(C(C)C(=O)Nc3ccc(Br)cc3)c2=O)cc1", "note": "(stereo not shown) [MIPS-0008853]", "values": [{"measurement": "Calcium Rmax", "setting": "hFPR1 [1]", "result": "26 ± 6"}, {"measurement": "ERK Rmax", "setting": "hFPR1 [2]", "result": "81 ± 6"}, {"measurement": "ERK pEC50", "setting": "hFPR1 [2]", "result": "5.58 ± 0.14"}]}, {"smiles": "Cc1cc(Cc2cccc3c2OCCO3)c(=O)n(CC(=O)Nc2ccc(Cl)cc2)n1", "note": "[MIPS-0014053]", "values": [{"measurement": "ERK Rmax", "setting": "hFPR1 [2]", "result": "78 ± 13"}, {"measurement": "EC50", "setting": "hFPR1 [2]", "result": 1910, "unit": "nM"}]}, {"smiles": "Cc1cc(Cc2ccccn2)c(=O)n(CC(=O)Nc2ccc(Cl)cc2)n1", "note": "[MIPS-0014057]", "values": [{"measurement": "Calcium Rmax", "setting": "hFPR1 [1]", "result": "45 ± 10"}, {"measurement": "EC50", "setting": "hFPR1 [1]", "result": 4570, "unit": "nM"}, {"measurement": "ERK Rmax", "setting": "hFPR1 [2]", "result": "91 ± 4"}, {"measurement": "EC50", "setting": "hFPR1 [2]", "result": 603, "unit": "nM"}]}, {"smiles": "COc1cccc(Cc2cc(C)nn(C(C)C(=O)Nc3ccc(F)cc3)c2=O)c1", "note": "(stereo not shown) [MIPS-0008749]", "values": [{"measurement": "ERK Rmax", "setting": "hFPR1 [2]", "result": "57 ± 2"}, {"measurement": "ERK pEC50", "setting": "hFPR1 [2]", "result": "5.07 ± 0.18"}]}, {"smiles": "COc1ccccc1Cc1cc(C)nn(CC(=O)Nc2ccc(C)cc2)c1=O", "note": "[MIPS-0014058]", "values": [{"measurement": "Calcium Rmax", "setting": "hFPR1 [1]", "result": "32 ± 1"}, {"measurement": "EC50", "setting": "hFPR1 [1]", "result": 5010, "unit": "nM"}, {"measurement": "ERK Rmax", "setting": "hFPR1 [2]", "result": "87 ± 1"}, {"measurement": "EC50", "setting": "hFPR1 [2]", "result": 1150, "unit": "nM"}]}, {"smiles": "COc1ccccc1Cc1cc(C)nn(C(C)C(=O)Nc2ccc(Br)cc2)c1=O", "note": "(stereo not shown) [MIPS-0008854]", "values": [{"measurement": "Calcium Rmax", "setting": "hFPR1 [1]", "result": "26 ± 9"}, {"measurement": "ERK Rmax", "setting": "hFPR1 [2]", "result": "76 ± 3"}, {"measurement": "ERK pEC50", "setting": "hFPR1 [2]", "result": "6.07 ± 0.11"}]}, {"smiles": "COc1cccc(Cc2cc(C)nn(CC(=O)Nc3ccc(Cl)cc3)c2=O)n1", "note": "[MIPS-0014055]", "values": [{"measurement": "Calcium Rmax", "setting": "hFPR1 [1]", "result": "11 ± 2"}, {"measurement": "ERK Rmax", "setting": "hFPR1 [2]", "result": "94 ± 11"}, {"measurement": "EC50", "setting": "hFPR1 [2]", "result": 1780, "unit": "nM"}]}, {"smiles": "Cc1cc(Cc2ccccc2F)c(=O)n(C(C)C(=O)Nc2ccc(Br)cc2)n1", "note": "(stereo not shown) [MIPS-0008858]", "values": [{"measurement": "Calcium Rmax", "setting": "hFPR1 [1]", "result": "8 ± 2"}, {"measurement": "ERK Rmax", "setting": "hFPR1 [2]", "result": "91 ± 8"}, {"measurement": "ERK pEC50", "setting": "hFPR1 [2]", "result": "5.75 ± 0.12"}]}, {"smiles": "Cc1cc(Cc2cccc(F)c2)c(=O)n(C(C)C(=O)Nc2ccc(Br)cc2)n1", "note": "(stereo not shown) [MIPS-0008859]", "values": [{"measurement": "Calcium Rmax", "setting": "hFPR1 [1]", "result": "18 ± 3"}, {"measurement": "ERK Rmax", "setting": "hFPR1 [2]", "result": "93 ± 7"}, {"measurement": "ERK pEC50", "setting": "hFPR1 [2]", "result": "5.68 ± 16"}]}]}
